Reference: patent publication US20230338347A1, “New Use of Inhibitors of the Notch Signalling Pathway” (Cellestia Biotech AG, priority 2020, published 2023)

Legend:
[1] = Phase I/IIA first-in-human dose escalation: safety and tolerability (adverse events, DLT); details: in vivo
Source text: […], open-label study investigating the safety, tolerability, pharmacokinetics (PK), pharmacodynamics (PD) and preliminary efficacy of the pan-NOTCH inhibitor 6-(4-Tert-Butylphenoxy)Pyridin-3-Amine in adult patients with locally advanced or metastatic solid tumours or hematologic malignancies.
6-(4-Tert-Butylphenoxy)Pyridin-3-Amine is orally administered and is a small molecule targeting the NOTCH signalling pathway with binding to the NOTCH-specific transcription complex located at the nucleus of cells. The study is divided into two parts with Part A being the dose escalation part of the study to determine the maximum tolerated dose (MTD) or recommended Phase II dose (RP2D). In Part A at least 3, up to 6 patients per dose will participate in the sequentially enrolled dose cohorts. In an additional cohort of approximately 45-50 patients, the safety of the previously determined RP2D will be confirmed (dose confirmatory cohort).
The dosing will be 15, 30, 60, 120, 170, 250, 400, or 600 mg of the 6-(4-Tert-Butylphenoxy)Pyridin-3-Amine monohydrochloride salt or higher per day or alternatively 20, 40, 60, 120, 170, 250, 400, or 600 mg of the 6-(4-Tert-Butylphenoxy)Pyridin-3-Amine monohydrochloride salt or higher per day. Dosing of 15, 30, 60, 120, 170, 250, 400, or 600 mg of the 6-(4-Tert-Butylphenoxy)Pyridin-3-Amine monohydrochloride salt corresponds to dosing of 13, 26, 52, 104, 148, 217, 348, or 522 mg of 6-(4-Tert-Butylphenoxy)Pyridin-3-Amine (free base). Dosing of 20, 40, 60, 120, 170, 250, 400, or 600 mg of the 6-(4-Tert-Butylphenoxy)Pyridin-3-Amine monohydrochloride salt corresponds to dosing of 17, 35, 52, 104, 148, 217, 348, or 522 mg of 6-(4-Tert-Butylphenoxy)Pyridin-3-Amine (free base). For this study, 6-(4-Tert-Butylphenoxy)Pyridin-3-Amine monohydrochloride salt was formulated into a capsule having a drug load of 5, 10, 20, 50 and 100 mg, respectively intended to be administered orally. • Patients will meet the following criteria:
(§1) The primary outcome measures for this study are: • Part A (Escalation): Dose limiting toxicities (DLT) • Part B (Expansion): Best overall response according to the respective tumour assessment criteria for the different cancer indications.
Fourty-one patients (median age 55 years, range 25 to 76 years) have been treated with 6-(4-Tert-Butylphenoxy)Pyridin-3-Amine in the dose escalation part of the clinical study at oral doses of 15 mg-600 mg QD (once a day). […] Cumulatively, a total of 352 AEs has occurred in 41 patients since study initiation, of which 132 AEs […] in 31 patients were considered related to the study drug. The treatment-related treatment-emergent AEs (TEAEs) most commonly reported (≥10% of patients) were nausea (24%), diarrhea (20%), dyspepsia (15%), fatigue (12%), and vision blurred (12%).

NOTCH target genes = assay: NOTCH target gene expression in hair follicles of Phase 1 patients (Nanostring); format: in vivo, human; details: several NOTCH target genes, starting at Cycle 2 day 1
Source text: Hair follicles were obtained at pre-defined time points to measure changes in NOTCH target genes expression by 6-(4-Tert-Butylphenoxy)Pyridin-3-Amine treatment. NOTCH target gene down-regulation in hair follicles has been reported to be a robust and indicative biomarker that correlates with both clinical efficacy and the incidence of DLTs (Tanis K Q, et al. Clin Pharmacol Ther 2016; 99(4):370-80; Cook N, et al. BJC 2018; 118(6):793-801).
Between 5 to 10 hairs were plucked to extract the complete and undamaged hairbulb (full hair follicle), and processed as described in Camidge D R, et al. Br J Cancer 2005; 92:1837-41 and Bradley B J, et al. Mol EcolNotes 2005; 5:961-4. RNA concentration was measured by Qubit (RNAHighSensitivity), and RNA integrity was evaluated on a RNA 6000 Pico chip. RNA samples were tested for gene expression profiling on a Nanostring platform.
Table 1: NOTCH target down regulation in hair follicles and blood cells from Phase 1 patients. Target gene down regulation (CCND3, cyclin-D3; HES1, Hairy and enhance of split-1; HES4, Hairy and enhance of split-4; HESS, Hairy and enhance of split-5; HEY1, hes related family bHLH transcription factor with YRPW motif1; HEY2; hes related family bHLH transcription factor with YRPW motif 2; HEYL, hes-related family bHLH transcription factor with YRPW motif-like; IL7R-α, Interleukin-7 receptor subunit alpha; NOTCH1; NOTCH2; NRARP (NOTCH Regulated Ankyrin Repeat Protein): […]

[2] = test system: Notch-activated relapsed and treatment refractory T-ALL; assay: Compassionate use in a NOTCH positive relapsed refractory T-ALL patient: clinical response; format: in vivo, human; details: free base once daily 300 to 400 to 500 mg
Protocol: In a compassionate use program, a patient with Notch-activated relapsed and treatment refractory T-ALL was treated with 6-(4-Tert-Butylphenoxy)Pyridin-3-Amine (free base) once daily starting with 300 mg, increased to 400 mg, then 500 mg in addition to their ongoing anti-cancer treatment. Dose escalation was done every 3 days to reach the target dose 500 mg.

[3] = test system: adenoid cystic carcinoma (ACC); assay: Phase I/IIA study: preliminary clinical efficacy (best response, disease control rate); format: in vivo, human; details: for Disease control rate (CR, PR or SD / patients treated): 19 ACC patients
Source text: Each lane represents one patient and the length of the lane represents the duration of treatment. […] Disease control rate of 19 patients with adenoid cystic carcinoma at 8 weeks and 20 weeks was 79% and 58%, respectively (calculated as number of patients with complete or partial response, or stable disease divided by the number of patients with that indication treated). Abbreviations: SD, stable disease; PD, progressive disease; NA, not applicable).
as §1
The Notch status of the other patients is under investigation. Disease control rate (DCR) of 19 ACC patients at 8 weeks and 20 weeks was 79% and 58%, respectively (DCR defined as number of patients with CR, PR, or SD divided by the number of patients treated).

CC(C)(C)c1ccc(Oc2ccc(N)cn2)cc1 [6-(4-Tert-Butylphenoxy)Pyridin-3-Amine]
AEs considered related to the study drug, share of all AEs ([1]; human): 37.2%
number of AEs considered related to the study drug ([1]; human): 132
number of patients with AEs considered related to the study drug ([1]; human): 31
number of serious adverse events (SAEs) ([1]; human): 12
related AE of tachycardia ([1]; human): one related AE of tachycardia Grade 1
serious adverse events, share of all AEs ([1]; human): 3.4%
total number of AEs ([1]; human): 352
treatment-related TEAE diarrhea ([1]; human): 20%
treatment-related TEAE dyspepsia ([1]; human): 15%
treatment-related TEAE fatigue ([1]; human): 12%
treatment-related TEAE nausea ([1]; human): 24%
treatment-related TEAE vision blurred ([1]; human): 12%
QTc prolongation [1]: no QTc prolongations
SAEs considered related to study drug [1]: one SAE was considered related to study drug
cardiotoxicity signal [1]: no signal of cardiotoxicity
deaths due to drug-related AEs [1]: No deaths due to drug-related AEs
dose limiting toxicity (DLT) [1]: one dose limiting toxicity
dose relation of AEs over the dose cohorts [1]: no evidence of dose relation
skin phototoxicity or eye mydriasis events [1]: No events of skin phototoxicity or eye mydriasis
average NOTCH target gene downregulation compared to baseline (inhibition) (NOTCH target genes): higher than 90%
time to complete remission after starting dosing [2]: ≤ 1 week
clinical response ([2]; added to ongoing anti-cancer treatment): complete remission
number of ACC patients with radiologically confirmed stable disease ([3]; 4 of them with Notch activating mutation): Ten
Disease control rate (CR, PR or SD / patients treated) ([3]; at 8 weeks): 79%
Disease control rate (CR, PR or SD / patients treated) ([3]; at 20 weeks): 58%
best response ([3]; at doses showing target engagement): durable stable disease
